Experimental data published in PubChem BioAssay AID1259408 (Genetic Toxicology Data Bank (GENE-TOX), 2018).
Active and inactive are the calls of the source. No rule for the calls is given here.

Tested on: GENE-TOX genotoxicity assays, various organisms and cells
Experiment: GENE-TOX mutagenicity studies
Settings: for call: Assay Type: In vivo carcinogenicity studies, Assay Code: CCG+
[1] = Species/Cell Type: Drosophila melanogaster, Assay Type: Sex-linked recessive lethal gene mutation, Assay Code: SRL+, Evaluation Type: Evaluation A (Pre-1980)
[2] = Species/Cell Type: Human lymphocytes, Assay Type: Sister-chromatid exchange (SCE) in vitro, Assay Code: SCLT, Evaluation Type: Evaluation B (Post-1980)
[3] = Species/Cell Type: Human, Assay Type: Sister-chromatid exchange (SCE) in vitro, Assay Code: SC1T, Evaluation Type: Evaluation B (Post-1980)
[4] = Species/Cell Type: Escherichia coli polA (W3119 vs P3478), Assay Type: Rec-assay, DNA effects (bacterial DNA repair), Assay Code: RE1T, Evaluation Type: Evaluation A (Pre-1980)
[5] = Species/Cell Type: Saccharomyces cerevisiae, Assay Type: Mitotic recombination or gene conversion, Assay Code: YEH-, Evaluation Type: Evaluation A (Pre-1980)
[6] = Species/Cell Type: Salmonella typhimurium, Assay Type: Forward and reverse gene mutation, host-mediated assay, Assay Code: HMA-, Evaluation Type: Evaluation A (Pre-1980)
[7] = Species/Cell Type: Salmonella typhimurium (one or more of the five standard strains: TA98, TA100, TA1535, TA1537, and TA1538), Assay Type: Histidine reverse gene mutation, Ames assay, Assay Code: SAL+*, Activation: With metabolic activation, Evaluation Type: Evaluation A (Pre-1980)
[8] = Species/Cell Type: Escherichia coli polA (W3110 vs P3478), Assay Type: Rec-assay, DNA effects (bacterial DNA repair), Assay Code: RE2+, Evaluation Type: Evaluation A (Pre-1980)
[9] = Species/Cell Type: Nonhuman, Evaluation Type: Evaluation A (Pre-1980)
[10] = Species/Cell Type: Salmonella typhimurium (one or more of the five standard strains: TA98, TA100, TA1535, TA1537, and TA1538), Assay Type: Histidine reverse gene mutation, Ames assay, Assay Code: SAL+, Evaluation Type: Evaluation A (Pre-1980)
[11] = Species/Cell Type: Salmonella typhimurium (one or more of the five standard strains: TA98, TA100, TA1535, TA1537, and TA1538), Assay Type: Histidine reverse gene mutation, Ames assay, Assay Code: SALT, Evaluation Type: Evaluation A (Pre-1980)
[12] = Species/Cell Type: Nonhuman, Assay Type: Sister-chromatid exchange (SCE) in vivo, Assay Code: SC3T, Evaluation Type: Evaluation B (Post-1980)

With `c1ccc2nc3ccccc3cc2c1` as the molecule, how does the mutagenic call (Species/Cell Type: Saccharomyces cerevisiae, Assay Type: Forward gene mutation, Assay Code: YEFT, Evaluation Type: Evaluation A (Pre-1980)) read?
Its mutagenic call is “no conclusion”.

For `C/C=C(/C)C(=O)O[C@@H]1CCN2CC=C(COC(=O)[C@@](O)([C@H](C)O)C(C)(C)O)[C@H]12`, which mutagenic call [1] is on record?
The mutagenic call was “active; positive”.

Which mutagenic call (Species/Cell Type: Allium cepa, Assay Type: Chromosome aberrations, Assay Code: ALC+, Evaluation Type: Evaluation A (Pre-1980)) does the source give for `Nc1c[nH]c(=O)[nH]c1=O` here?
The mutagenic call was “active; positive”.

For `O=[N+]([O-])c1cnc(CO)n1CCO`, which mutagenic call [2] is on record?
The mutagenic call was “no conclusion”.

What about the mutagenic call [3] of the same molecule?
The mutagenic call was “no conclusion”.

Which mutagenic call (Species/Cell Type: Bacillus subtilis (H17 vs M45), Assay Type: Rec-assay, spot test, DNA effects (bacterial DNA repair), Assay Code: REW+, Evaluation Type: Evaluation A (Pre-1980)) does the source give for `C[As](SC#N)SC#N` here?
Its mutagenic call is “active; positive”.

Which results are given for `Brc1ccccc1`?
mutagenic call [4]: no conclusion; mutagenic call (Species/Cell Type: Mammalian polychromatic erythrocytes, Assay Type: Micronucleus test, chromosome aberrations, Assay Code: MNT+, Evaluation Type: Evaluation B (Post-1980)): active; positive; mutagenic call [5]: inactive; negative; mutagenic call (Species/Cell Type: Salmonella typhimurium (one or more of the five standard strains: TA98, TA100, TA1535, TA1537, and TA1538), Assay Type: Histidine reverse gene mutation, Ames assay, Assay Code: SAL-, Evaluation Type: Evaluation A (Pre-1980)): inactive; negative; mutagenic call [6]: inactive; negative; mutagenic call (Species/Cell Type: Syrian hamster embryo (SHE) cells, Assay Type: Cell transformation, clonal assay, Assay Code: CTC-, Evaluation Type: Evaluation A (Pre-1980)): inactive; negative

Which mutagenic call (Species/Cell Type: Aspergillus nidulans, Assay Type: Aneuploidy, chromosome aberrations, Assay Code: ASN+, Evaluation Type: Evaluation A (Pre-1980)) does the source give for `C[C@@H]1[C@H](O)[C@@H](C)/C=C/C=C/C=C/C=C/C=C/C=C/C=C/[C@H](O[C@@H]2O[C@H](C)[C@@H](O)[C@H](N)[C@@H]2O)C[C@@H]2O[C@](O)(C[C@@H](O)C[C@@H](O)[C@H](O)CC[C@@H](O)C[C@@H](O)CC(=O)O[C@H]1C)C[C@H](O)[C@H]2C(=O)O` here?
Its mutagenic call is “active; positive”.

For `CCC1(O)CC(OC2CC(N)C(OC3CC(O)C(OC4CCC(=O)C(C)O4)C(C)O3)C(C)O2)c2c(cc3c(c2O)C(=O)c2c(O)cccc2C3=O)C1C(=O)OC` (configuration not stated), which mutagenic call [7] is on record?
The mutagenic call was “active; positive”.

Which mutagenic call (Species/Cell Type: Salmonella typhimurium, Assay Type: Forward and reverse gene mutation, host-mediated assay, Assay Code: HMA+, Evaluation Type: Evaluation A (Pre-1980)) does the source give for `CCCCNC(=O)N(CCCC)c1nc(-c2ccccc2)cs1` here?
The mutagenic call was “active; positive”.

How did the mutagenic call (Species/Cell Type: Nonhuman, Assay Type: Sister-chromatid exchange (SCE) in vivo, Assay Code: SC3+D, Dose Response: With dose response, Evaluation Type: Evaluation B (Post-1980)) turn out when `CC(C)OC(N)=O` was run?
The mutagenic call was “active; positive”.

`CC[C@]1(O)CC[C@H]2[C@@H]3CCC4=CC(=O)CC[C@@H]4[C@H]3CC[C@@]21C` was tested. Which mutagenic call (Species/Cell Type: Human, Sex: Male, Assay Type: Sperm morphology, Assay Code: SPH+, Evaluation Type: Evaluation A (Pre-1980)) did it give?
Its mutagenic call is “active; positive”.

For `Cc1c2ccccc2c(CO)c2ccc3ccccc3c12`, which mutagenic call (Species/Cell Type: Chinese hamster lung (V79) cells, Assay Type: Forward gene mutation at the HPRT or ouabain locus, Assay Code: V79+, Evaluation Type: Evaluation A (Pre-1980)) is on record?
Its mutagenic call is “active; positive”.

And the mutagenic call [8]?
The mutagenic call was “active; positive”.

What about the mutagenic call [4] of the same molecule?
The mutagenic call was “no conclusion”.

And the call [9]?
Its call is “active; positive”.

What about the mutagenic call [5] of the same molecule?
The mutagenic call was “inactive; negative”.

And the mutagenic call [7]?
Its mutagenic call is “active; positive”.

What about the mutagenic call [6] of the same molecule?
Its mutagenic call is “inactive; negative”.

For `O=C1C=C(N2CC2)C(=O)C2=C1CCCC2`, which mutagenic call [1] is on record?
The mutagenic call was “active; positive”.

`CN(C)N=Nc1ccccc1` was tested. Which mutagenic call (Species/Cell Type: Drosophila melanogaster, Assay Type: Aneuploidy, partial sex chromosome loss, chromosome aberrations, Assay Code: DAP+M, Evaluation Type: Evaluation A (Pre-1980)) did it give?
The mutagenic call was “active; positive”.

What about the mutagenic call [1] of the same molecule?
Its mutagenic call is “active; positive”.

And the mutagenic call (Species/Cell Type: Drosophila melanogaster, Sex: Male, Assay Type: Heritable translocation test, chromosome aberrations, Assay Code: DHT+, Evaluation Type: Evaluation A (Pre-1980))?
Its mutagenic call is “active; positive”.

And the mutagenic call [8]?
The mutagenic call was “active; positive”.

And the mutagenic call (Species/Cell Type: Escherichia coli polA (W3119 vs P3478), Assay Type: Rec-assay, DNA effects (bacterial DNA repair), Assay Code: RE1+, Evaluation Type: Evaluation A (Pre-1980))?
Its mutagenic call is “active; positive”.

And the mutagenic call (Species/Cell Type: Mammalian polychromatic erythrocytes, Assay Type: Micronucleus test, chromosome aberrations, Assay Code: MNT+, Evaluation Type: Evaluation A (Pre-1980))?
Its mutagenic call is “active; positive”.

And the mutagenic call (Species/Cell Type: Neurospora crassa, Assay Type: Forward gene mutation, Assay Code: NEF+, Evaluation Type: Evaluation A (Pre-1980))?
Its mutagenic call is “active; positive”.

What about the mutagenic call (Species/Cell Type: Nonhuman lymphocytes or leukocytes, Assay Type: Chromosome aberrations in vivo, Assay Code: CY%-, Evaluation Type: Evaluation A (Pre-1980)) of the same molecule?
Its mutagenic call is “inactive; negative”.

What about the call [9] of the same molecule?
Its call is “active; positive”.

And the mutagenic call (Species/Cell Type: Nonhuman, Assay Type: Sister-chromatid exchange (SCE) in vivo, Assay Code: SC3+D, Dose Response: With dose response, Evaluation Type: Evaluation A (Pre-1980))?
The mutagenic call was “active; positive”.

What about the mutagenic call (Species/Cell Type: Saccharomyces cerevisiae, Assay Type: Forward and reverse gene mutation, mitotic recombination and gene conversion, host-mediated assay, Assay Code: HME+, Evaluation Type: Evaluation A (Pre-1980)) of the same molecule?
Its mutagenic call is “active; positive”.

And the mutagenic call (Species/Cell Type: Saccharomyces cerevisiae, Assay Type: Mitotic recombination or gene conversion, Assay Code: YEC+, Evaluation Type: Evaluation A (Pre-1980))?
Its mutagenic call is “active; positive”.

And the mutagenic call (Species/Cell Type: Saccharomyces cerevisiae, Assay Type: Mitotic recombination or gene conversion, Assay Code: YEH+, Evaluation Type: Evaluation A (Pre-1980))?
The mutagenic call was “active; positive”.

With `O=NN1CCC(O)C1` (configuration not stated) as the molecule, how does the mutagenic call [10] read?
The mutagenic call was “active; positive”.

How did the mutagenic call [11] turn out when `FC(F)C(F)(F)C(F)(F)OC(F)(F)F` was run?
Its mutagenic call is “no conclusion”.

What does the source list for `Cc1ccccc1O`?
mutagenic call (Species/Cell Type: Allium cepa, Assay Type: Chromosome aberrations, Assay Code: ALCT, Evaluation Type: Evaluation A (Pre-1980)): no conclusion; mutagenic call [2]: no conclusion; mutagenic call (Species/Cell Type: Human, Assay Type: Sister-chromatid exchange (SCE) in vitro, Assay Code: SC1+, Evaluation Type: Evaluation B (Post-1980)): active; positive; mutagenic call [12]: no conclusion

Which mutagenic call [7] does the source give for `Cc1cc(O)c2c(c1)C(=O)c1cc(O)cc(O[C@@H]3O[C@H](CO)[C@@H](O)[C@H](O)[C@H]3O)c1C2=O` here?
The mutagenic call was “active; positive”.

How did the mutagenic call (Species/Cell Type: Fischer rat embryo (RLV/1706) cells, Assay Type: Cell transformation, viral enhanced, Assay Code: CTR+, Evaluation Type: Evaluation A (Pre-1980)) turn out when `CCN(CC)CCNc1ccc(O)c2c1C(=O)c1ccccc1S2=O` (configuration not stated) was run?
Its mutagenic call is “active; positive”.

With `Nc1ccc(-c2nc(N(CCO)CCO)c3ccccc3n2)s1` as the molecule, how does the mutagenic call [11] read?
The mutagenic call was “no conclusion”.

How did the mutagenic call (Species/Cell Type: Nonhuman, Assay Type: Sister-chromatid exchange (SCE) in vitro, Assay Code: SC2+, Evaluation Type: Evaluation B (Post-1980)) turn out when `C=COCC(F)(F)F` was run?
The mutagenic call was “active; positive”.

And the mutagenic call [7]?
Its mutagenic call is “active; positive”.

What about the mutagenic call (Species/Cell Type: Salmonella typhimurium and Escherichia coli, Assay Type: Forward and reverse gene mutation, body fluid assay, Assay Code: BFB-, Evaluation Type: Evaluation A (Pre-1980)) of the same molecule?
Its mutagenic call is “inactive; negative”.

Which results are given for `CCC1=C(O)C(=O)CC1`?
mutagenic call [2]: no conclusion; mutagenic call [3]: no conclusion

With `Nc1ccccc1O` as the molecule, how does the mutagenic call (Species/Cell Type: Human, Assay Type: Sister-chromatid exchange (SCE) in vitro, Assay Code: SC1+D, Dose Response: With dose response, Evaluation Type: Evaluation B (Post-1980)) read?
Its mutagenic call is “active; positive”.

With `OC1c2c(c3cc4ccccc4cc3c3ccccc23)C=C[C@H]1O` (some centres not stated) as the molecule, how does the mutagenic call (Species/Cell Type: Nonhuman, Assay Type: Sister-chromatid exchange (SCE) in vitro, Assay Code: SC2+D, Dose Response: With dose response, Evaluation Type: Evaluation B (Post-1980)) read?
The mutagenic call was “active; positive”.

Which mutagenic call (Species/Cell Type: Allium cepa, Assay Type: Chromosome aberrations, Assay Code: ALC-, Evaluation Type: Evaluation A (Pre-1980)) does the source give for `O=C1C(=O)c2ccccc2-c2ccccc21` here?
The mutagenic call was “inactive; negative”.

`CN(C)CCC=C1c2ccccc2C=Cc2ccccc21` was tested. Which mutagenic call [11] did it give?
Its mutagenic call is “no conclusion”.

How did the mutagenic call [12] turn out when `Cc1cc(C(=O)NCCc2ccc(S(=O)(=O)NC(=O)NN3CCCCCC3)cc2)no1` was run?
Its mutagenic call is “no conclusion”.

Which mutagenic call (Species/Cell Type: Rat, Sex: Male, Assay Type: Sperm morphology, Assay Code: SPA+, Evaluation Type: Evaluation A (Pre-1980)) does the source give for `CCC(=O)Oc1ccc2c(c1)CC[C@@H]1[C@@H]2CC[C@]2(C)[C@@H](OC(=O)CC)CC[C@@H]12` here?
The mutagenic call was “active; positive”.

Which mutagenic call (Species/Cell Type: Arabidopsis species, Assay Type: Gene mutation, Assay Code: ARM+, Evaluation Type: Evaluation A (Pre-1980)) does the source give for `CCCCN(N=O)/C(N)=N/[N+](=O)[O-]` here?
Its mutagenic call is “active; positive”.

And the mutagenic call [10]?
Its mutagenic call is “active; positive”.

`CNC(=O)Oc1ccccc1C(C)C` was tested. Which mutagenic call (Species/Cell Type: Bacillus subtilis (H17 vs M45T), Assay Type: Rec-assay, spot test, DNA effects (bacterial DNA repair), Assay Code: REX-, Evaluation Type: Evaluation A (Pre-1980)) did it give?
The mutagenic call was “inactive; negative”.

What about the mutagenic call (Species/Cell Type: Escherichia coli WP2, Assay Type: Tryptophan reverse gene mutation, Assay Code: WP2-, Evaluation Type: Evaluation A (Pre-1980)) of the same molecule?
Its mutagenic call is “inactive; negative”.
